Experimental data taken from patent US11813333B2, “Use of high molecular weight polyethylene glycol compositions to restore the efficacy of pegylated therapeutic compositions” (THE UNIVERSITY OF NORTH CAROLINA AT CHAPEL HILL, priority 2017, dated 2023).

How the values were obtained:
[1] = system: anti-PEG antibodies (APA); settings: mouse, in vivo
Description: Adult BALB/c mice (18-22 weeks, female, Charles River) were passively immunized with APA by the intravenous administration of mouse anti-PEG IgG1 (Silver Lake Research, CH2076, lot K0868) 24 hours prior to the intravenous administration of PLD (3 mg/kg, Doxil®, Janssen Products, LP). […] Other groups received PBS 0.5 hours prior to the administration of PLD as a control. At time points of 0.083, 3, 6, 24, 48, and 96 hours following PLD administration, mice were anesthetized using ketamine (100 mg/kg, i.p.) and medetomidine hydrochloride (1 mg/kg, i.p.), then sacrificed via cardiac puncture (into sodium heparin vacutainers) and cervical dislocation. The blood, liver, spleen, and lungs were collected for doxorubicin quantification.
Briefly, blood samples were collected in sodium heparin tubes at 0.083, 3, 6, 24, 48 and 96 hours after the administration of PLD. Blood was centrifuged at 1,500 g for 5 minutes to obtain plasma. Encapsulated and released doxorubicin in plasma were separated using solid phase separation. Tissues of interest were flash frozen in liquid nitrogen and stored at −80° C. until processing. Upon processing, tissues were thawed, weighed, and diluted in a 1:3 ratio with phosphate buffered saline prior to homogenizing with a Precellys 24 bead mill homogenizer (Omni International Inc, Kennesaw, GA). Samples were further processed by addition of 800 μL extraction solution (acetonitrile with 100 ng/mL daunorubicin internal standard) to 200 μL of plasma or tissue homogenate. The samples were vortexed for 10 minutes and centrifuged at 10,000 g for 10 minutes at 4° C. […] The samples were then vortexed, transferred to autosampler vials, and analyzed by high-performance liquid chromatography with fluorescence detection (HPLC-FL) set to excitation wavelength 490 nm/emission wavelength 590 nm. […] Samples that returned a concentration above the quantitative limit were diluted to fall within the quantitative range and reinjected.

[2] = system: anti-PEG antibodies (APA); settings: patients with chronic refractory gout; cited from earlier work

| Substance | time by which the vast majority of the PLD is found in the liver (delayed hepatic accumulation) [1] [h] | fraction of patients that developed APA leading to rapid clearance of the enzyme from the blood [2] |
| --- | --- | --- |
| polyethylene glycol [PEG 20 kDa] | 24 | – |
| polyethylene glycol [PEG 10 kDa] | 3 | – |
| polyethylene glycol [PEG 40 kDa] | 96 | – |
| pegloticase | – | roughly one-third |
